Data: patent US20260000685A1, “PHARMACEUTICAL COMPOSITION FOR PREVENTING OR TREATING DEGENERATIVE BRAIN DISEASES, COMPRISING CANNABINOIDS AS ACTIVE INGREDIENT, AND USES THEREOF” (NEOCANNBIO CO., LTD., priority 2022, published 2026)

Key:
[1] = test system: phosphorylated tau (p-Tau); test: Western blotting of Tau/p-Tau in Aβ1-42-treated primary neuronal cells; assay type: cell-based, ICR mice; conditions: with Aβ1-42 (5 μM), 24 hours; compared to Aβ1-42 alone; FIG. 7
Procedure: (§1) To conduct Western blotting, tissues were homogenized in radioimmunoprecipitation assay buffer (Cell Signaling) to acquire tissue lysates. Tissue protein concentrations were determined using the Bio-Rad protein assay (Bio-Rad, Hercules, CA, USA), and Western blot analysis was conducted using 80-120 μg of protein. Next, the Western blotting samples prepared using the proteins were separated using 12% SDS-PAGE and transferred to a polyvinylidene fluoride membrane (PVDF) (Merck Millipore, Burlington, MA, USA; 0.4 μm). The PVDF was blocked with tris-buffered saline including 5% bovine serum albumin and Tween-20, and incubated with primary antibodies overnight at 4° C. After primary antibody incubation, the samples were incubated with HRP-conjugated secondary antibody (Sigma; 1:5000) for 1 hour at room temperature, and immunodetection was conducted using an enhanced chemiluminescence detection kit (GE Healthcare, Chicago, IL, USA).
Specifically, primary neuronal cells derived from ICR mice were cultured for 6 days, and then treated with CBDA, THCA, THC, or CBN compounds while treating with Aβ1-42 (5 μM), and treated together for 24 hours. Next, to confirm the expression levels of Tau and phosphorylated Tau (p-Tau) in the cells, Western blotting was conducted using the method disclosed in Example 4 above.

[2] = test system: Alzheimer's animal model (Aβ1-42 treated mice); test: Object location test (OLT) in Aβ1-42 Alzheimer's animal model; assay type: in vivo, ICR mice; conditions: compared to mice treated with only Aβ1-42; FIG. 14
Procedure: (§2) Female ICR mice (8 weeks old) used in the experiment were purchased from Coretech (Pyeongtaek, Korea). Mice were housed in the animal care facility of the Korea Institute of Science and Technology (KIST) (temperature 22±2° C., humidity 40-60%, 12-hour light/dark cycle). Mice were housed in an environment with free access to food and water. All animal experiments were conducted in accordance with the protocol approval of the Animal Ethics Committee of our institution.
(§3) Next, to create an animal model, mice were randomly selected and divided into four groups as follows: PBS treated group (PBS+PBS), Aβ1-42 treated group (Aβ1-42 +PBS) (Alzheimer's animal model), CBDA treated group (Δβ1-42+CBDA (6.25 µM, 3 μL/mouse)), and THCA treated group (Δβ1-42+THCA (12.5 μM, 3 μL/mouse)).
(§4) After anesthetizing the isolated mice by intraperitoneal (i.p.) injection of avertin (250 mg/kg), the mice were fixed in a stereotaxic apparatus, and CBDA, THCA, Aβ1-42, or PBS (3 μl/15 min/mouse) were gradually delivered to the hippocampus using a Hamilton syringe (coordinates of bregma: mediolateral (ML)=1.30 mm, anteroposterior (AP)=−2.00 mm, dorsoventral=−2.20 mm).
First, the Novel Object Recognition Test (NOR) was conducted to examine a natural tendency of the experimental mice to explore novel stimuli. For this purpose, during the habituation session conducted 2 days before the test, the mice were allowed to explore the test environment consisting of an opaque custom-made Plexiglas box (35 cm×45 cm×25 cm) for 10 minutes. The sample object phase was conducted 24 hours later. Two identical white circular cylinders (sample objects) were placed on opposite edges of the test environment, and mice were given access to the objects for 10 minutes. After 4 hours (novel object stage), one of the sample objects in the test environment was replaced with a similarly sized novel object (colored miniature animal), and the mouse was allowed to contact this novel arrangement for 5 minutes. The time when the mouse's nose stayed <1 cm away from the object was considered the time the mouse explored the object, excluding the time when the mouse stood on the object. The identification rate was calculated as the time spent exploring the novel object relative to the time spent exploring the two objects.
Additionally, for the object location test (OLT), it was conducted in the same manner as the novel object recognition test described above, but on the last day of the object location test, one of the two sample objects was moved to a different location and the test was conducted.

[3] = test system: APP (Amyloid Precursor Protein); test: Western blotting of APP expression in Aβ1-42-treated primary neuronal cells; assay type: cell-based, ICR mice; conditions: CBDA (6 μM) or THCA (5 μM), with Aβ1-42 (5 μM), 24 hours; FIG. 6
Procedure: (§5) Specifically, primary neuronal cells derived from ICR mice were cultured for 6 days, and then treated with CBDA, THCA, THC, or CBN compounds while treating with Aβ1-42 (5 μM), and treated together for 24 hours. Next, Western blotting was conducted to confirm the expression levels of APP (Amyloid Precursor Protein), polymeric Aβ, and oligomeric AB in the cells.
as §1

[4] = test system: p-CREB (CAMP Response Element-Binding Protein); test: Western blot of p-CREB in hippocampal tissues of animal model; assay type: in vivo, ICR mice; conditions: day 19; compared to Aβ1-42 treated group; FIG. 17
Procedure: as §1
Specifically, hippocampal tissues were acquired on day 19 from the animal models created in Example 7 above (PBS treated group, Aβ1-42 treated group, CBDA treated group, and THCA treated group), and Western blot analysis was conducted on the hippocampal tissues to evaluate the expression levels of BDNF, p-CREB, and p-TrKB.

[5] = test system: Alzheimer's animal model (Aβ1-42 treated mice); test: Morris water maze test in Aβ1-42 Alzheimer's animal model; assay type: in vivo, ICR mice; conditions: compared to mice treated only with Aβ1-42; for learning ability (finding submerged platform during training session): CBDA 6.25 μM or THCA 12.5 μM, 3 μL/mouse into hippocampus, FIGS. 11 and 12; for time spent in the target quadrant (probe test) / time spent in the platform area (probe test) / number of times crossed the platform area (probe test): probe test on the 5th day; for time spent in the target quadrant (probe test): FIG. 13A; for time spent in the platform area (probe test): FIG. 13B; for number of times crossed the platform area (probe test): FIG. 13C
Procedure: as §2, §3, §4
Specifically, a circular tank (diameter 90 cm, height 50 cm, water temperature 22 ±2° C.) was used for the test, and the tank consisted of four quadrants filled with water. An escape platform (diameter 6 cm, height 29 cm) was submerged 1 cm below the water surface in the center of one of the four quadrants. Experimental mice were trained for 4 days to learn and memorize visual cues placed outside the tank indicating the platform location. The swimming paths of the experimental mice were recorded with a camera connected to a video recorder and path tracking software (EthoVision; Noldus Information Technology, Wageningen, The Netherlands). Four tests were conducted daily during the 4-day training period. During each trial, the experimental mice were allowed 60 seconds to find the hidden platform and an additional 30 seconds to remain on the platform. […] The average time it took each experimental mouse to find the platform (average escape latency) was recorded. Probe tests were conducted 4 days later in the same manner without the platform. Each experimental mouse was allowed to move freely for 60 seconds, which was recorded. Videos were analyzed using tracking software (EthoVision; Noldus Information Technology, Wageningen, The Netherlands) to calculate the time spent in the target quadrant area and the number of crossings in the platform area.

[6] = test system: amyloid beta (Aβ); test: Western blotting of Aβ expression in Aβ1-42-treated primary neuronal cells; assay type: cell-based, ICR mice; conditions: with Aβ1-42 (5 μM), 24 hours; for expression level of oligomeric Aβ / expression level of polymeric Aβ: CBDA (6 μM) or THCA (5 μM), FIG. 6; for expression level of AB: compared to Aβ1-42 alone, FIG. 5
Procedure: as §5, §1

| Compound | expression level of p-Tau [1] | phosphorylation level of p-Tau [1] | identification rate (OLT) [2] | time investigating the object moved to a different location [2] | expression level of APP [3] | expression level of p-CREB in hippocampal tissues [4] | learning ability (finding submerged platform during training session) [5] | time spent in the target quadrant (probe test) [5] | time spent in the platform area (probe test) [5] | number of times crossed the platform area (probe test) [5] | expression level of oligomeric Aβ [6] | expression level of polymeric Aβ [6] | expression level of AB [6] |
| --- | --- | --- | --- | --- | --- | --- | --- | --- | --- | --- | --- | --- | --- |
| CCCCCc1cc2c(c(O)c1C(=O)O)[C@@H]1C=C(C)CC[C@H]1C(C)(C)O2 [THCA, (6aR, 10aR)-1-Hydroxy-6,6,9-trimethyl-3-pentyl-6a,7,8,10a-tetrahydro-6H-benzo[c]chromene-2-carboxylic acid] | significantly reduced | significantly reduced | significantly increased | spent more time | significantly reduced | significantly increased | significantly enhanced | spent more time | spent more time | increased | significantly reduced | significantly reduced | significantly reduced |
| C=C(C)[C@@H]1CCC(C)=C[C@H]1c1c(O)cc(CCCCC)c(C(=O)O)c1O [CBDA] | significantly reduced | significantly reduced | significantly increased | spent more time | significantly reduced | significantly increased | significantly enhanced | spent more time | spent more time | increased | significantly reduced | significantly reduced | significantly reduced |
